For orientation: IC50 means the concentration that gives 50% inhibition.

This passage reports IC50 results from patent publication US11999732B2, “P2X3 receptor antagonists” (RECORDATI INDUSTRIA CHIMICA E FARMACEUTICA SPA, priority 2018, dated 2024).

The target in this assay is T1, human P2X3 receptor (Homo sapiens, UniProt P56373).
T1 construct: expressed in transfected cells; host or cells: CHO-K1
T1 sequence (P56373 1-397): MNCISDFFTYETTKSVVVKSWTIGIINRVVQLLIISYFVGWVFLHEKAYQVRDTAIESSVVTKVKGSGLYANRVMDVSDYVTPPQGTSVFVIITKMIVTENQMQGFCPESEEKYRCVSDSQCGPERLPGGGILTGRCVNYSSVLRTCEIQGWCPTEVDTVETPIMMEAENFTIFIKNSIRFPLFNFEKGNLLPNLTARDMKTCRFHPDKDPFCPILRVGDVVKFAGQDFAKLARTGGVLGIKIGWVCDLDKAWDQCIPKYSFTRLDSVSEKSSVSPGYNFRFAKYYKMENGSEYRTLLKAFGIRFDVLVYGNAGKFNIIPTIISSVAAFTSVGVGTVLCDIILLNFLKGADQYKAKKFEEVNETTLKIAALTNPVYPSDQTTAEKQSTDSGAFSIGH
Kind of assay: Calcium luminescence (photoprotein) assay in CHO-K1 cells co-expressing human P2X3 receptor, α,β-Met-ATP stimulation, FLEXSTATION readout. It is filed as cell-based. Particulars: Table 6; human P2X3 receptor antagonist activity, CHO-K1 cells, α,β-Met-ATP; read-out: h-P2X3 IC50. How it is done: The assay for the human purinergic P2X3 receptor has been adapted to the internal screening instrumentation using the FLEXSTATION as reader and a photoprotein as luminescent readout. The assay consists of CHO-K1 cells recombinantly co-expressing the human P2rx3 receptor and a Ca^2+ sensitive photoprotein. Cells are maintained in DMEM F-12 (1:1) mixture (LONZA cat. no BE04-687F/U1) supplemented with 9 mL of 100 mM Sodium Pyruvate (LONZA cat. no BE13-115E), 29 mL of 7.5% Sodium Bicarbonate (LONZA cat. no: BE17-613E), 5.5 mL of 1 M Hepes (LONZA cat. no BE17-737E), 5 mL of 100× Penicillin/Streptomycin (LONZA cat. no DE17-602E) and 50 mL of Fetal Bovine Serum (Sigma cat. no F7524), 1 mg/mL G418 (Sigma cat. no G8168) and 5 µg/ml puromycin (Sigma cat. no P9620). Standard propagation conditions consist of seeding in a P75 flask twice a week, recovering about 20×10^6 cells, corresponding to about 80% confluency. Cells were seeded into black-walled clear bottom 96 well plates at a density of 40000 cells/well in a Tyrode's buffer (Standard Tyrode's buffer: in house solution, 130 mM NaCl, 5 mM KCl, 2 mM CaCl2, 5 mM NaHCO3, 1 mM MgCl2, 20 mM HEPES, pH 7.4). After 24 h the culture medium was replaced with 200 μL/well of coelenterazine in Tyrode's buffer (Coelenterazine: from BIOSYNTH (cat. no C-7001). 10 mM stock solution was prepared in DMSO and glutathione and stored at −20° C.). The plates were incubated for 4 hours at 37° C., and injected with 10 μL/well of test compounds at 25× concentration in Tyrode's buffer. After 4 minutes a second injection of 50 μL/well of 5× α,β-Met-ATP in Tyrode's buffer (α,β-Met-ATP: from Tocris (cat. no 3209), was dissolved at 100 mM in water and stored in aliquots at −20° C.) was performed and the signal of the emitted luminescence was recorded by FLEXSTATION III (Molecular Devices).
The inhibition curves of the tested compounds at cloned P2X3 receptor were determined by nonlinear regression analysis using software Prism 4.0 (Graphpad, San Diego, Calif.). The IC50 values and pseudo-Hill slope coefficients were estimated by the program.

Consider `CC(C)CC1CN2C(=O)N(Cc3ccc(Cl)cc3)c3cc(N4CCOCC4)cnc3C2=N1` (stereo not drawn) [Example 30, 6-(4-chlorobenzyl)-2-(2-methylpropyl)-8-(morpholin-4-y1)-2,6-dihydroimidazo[1,2-c]pyrido[2,3-e]pyrimidin-5(3H)-one], for which the IC50 was found to be 350 nM.

For the compound `CC(C)CC1CN=C2c3ncc(N4CCOCC4)cc3N(Cc3ccc(Cl)cc3)C(=O)N21` (stereo not drawn) [Example 31, 6-(4-chlorobenzyl)-3-(2-methylpropyl)-8-(morpholin-4-yl)-2,6-dihydroimidazo[1,2-c]pyrido[2,3-e]pyrimidin-5(3H)-one], the IC50 came to 229 nM.

With `COc1ccc(CN2C(=O)N3CC(C(C)(C)C)N=C3c3ncc(N4CCOCC4)cc32)cc1` (stereo not drawn) [Example 32, 2-tert-butyl-6-(4-methoxybenzyl)-8-(morpholin-4-yl)-2,6-dihydroimidazo[1,2-c]pyrido[2,3-e]pyrimidin-5(3H)-one], the IC50 amounted to 124 nM.

As to `COc1ccc(CN2C(=O)N3CC(C4CCC4)N=C3c3ncc(N4CCOCC4)cc32)cc1` (stereo not drawn) [Example 33, 2-cyclobutyl-6-(4-methoxybenzyl)-8-(morpholin-4-yl)-2,6-dihydroimidazo[1,2-c]pyrido[2,3-e]pyrimidin-5(3H)-one], the IC50 was found to be 219 nM.

As for `COc1ccc(CN2C(=O)N3CC(CC(C)(C)C)N=C3c3ncc(N4CCOCC4)cc32)cc1` (stereo not drawn) [Example 34, 2-(2,2-dimethylpropyl)-6-(4-methoxybenzyl)-8-(morpholin-4-y1)-2,6-dihydroimidazo[1,2-c]pyrido[2,3-e]pyrimidin-5(3H)-one], the IC50 is 408 nM.

Turning to `COc1cc(CN2C(=O)N3C(=NCC3CC(C)C)c3ncc(N4CCOCC4)cc32)cc(OC)c1` (stereo not drawn) [Example 35, 6-(3,5-dimethoxybenzyl)-3-(2-methylpropyl)-8-(morpholin-4-yl)-2,6-dihydroimidazo[1,2-c]pyrido[2,3-e]pyrimidin-5(3H)-one], the IC50 came out at 793 nM.

Take `O=C1N2CC(c3ccccc3)N=C2c2ncc(N3CCOCC3)cc2N1Cc1ccc(Cl)cc1` (stereo not drawn) [Example 36, 6-(4-chlorobenzyl)-8-(morpholin-4-y1)-2-phenyl-2,6-dihydroimidazo[1,2-c]pyrido[2,3-e]pyrimidin-5(3H)-one]: the half-maximal inhibitory concentration (IC50) stood at 245 nM.

On to `COc1ccc(CN2C(=O)N3CC(CC(C)C)N=C3c3ncc(N4CCOCC4)cc32)cc1` (stereo not drawn) [Example 37, 6-(4-methoxybenzyl)-2-(2-methylpropyl)-8-(morpholin-4-yl)-2,6-dihydroimidazo[1,2-c]pyrido[2,3-e]pyrimidin-5(3H)-one], for which the IC50 came to 678 nM.

For the compound `COc1ccc(CN2C(=O)N3C(=NCC3CC(C)C)c3ncc(N4CCOCC4)cc32)cc1` (stereo not drawn) [Example 38, 6-(4-methoxybenzyl)-3-(2-methylpropyl)-8-(morpholin-4-yl)-2,6-dihydroimidazo[1,2-c]pyrido[2,3-e]pyrimidin-5(3H)-one], the IC50 was 2040 nM.

In the case of `CCC1CN2C(=O)N(Cc3ccc(OC)cc3)c3cc(N4CC(COC)C4)cnc3C2=N1` (stereo not drawn) [Example 39, 2-ethyl-6-(4-methoxybenzyl)-8-[3-(methoxymethyl)azetidin-1-yl]-2,6-dihydroimidazo[1,2-c]pyrido[2,3-e]pyrimidin-5(3H)-one], the IC50 stood at 5140 nM.

Take `O=C1N2CC3(CCOCC3)N=C2c2ncc(N3CCOCC3)cc2N1Cc1ccc(Cl)cc1` [Example 40, 6-(4-chlorobenzyl)-8-(morpholin-4-yl)-2′,3′,5′,6′-tetrahydrospiro[imidazo[1,2-c]pyrido[2,3-e]pyrimidine-2,4′-pyran]-5(6H)-one]: the IC50 was 1050 nM.

As for `O=C1N(Cc2ccc(Cl)cc2)c2cc(N3CCOCC3)cnc2C2=NCC3(CCOCC3)N12` [Example 41, 6-(4-chlorobenzyl)-8-(morpholin-4-yl)-2,2′,3′,5′,6,6′-hexahydro-5h-spiro[imidazo[1,2-c]pyrido[2,3-e]pyrimidine-3,4′-pyran]-5-one], the IC50 is 3320 nM.

Consider `COc1cc(CN2C(=O)N3CC(C(C)C)N=C3c3ncc(N4CCC(N)CC4)cc32)cc(OC)c1` (stereo not drawn) [Example 42, 8-(4-aminopiperidin-1-yl)-6-(3,5-dimethoxybenzyl)-2-(propan-2-yl)-2,6-dihydroimidazo[1,2-c]pyrido[2,3-e]pyrimidin-5(3H)-one], for which the 50% inhibitory concentration (IC50) is 189 nM.

Regarding `COc1cc(CN2C(=O)N3CC(C4CCCCC4)N=C3c3ncc(N4CCOCC4)cc32)cc(OC)c1` (stereo not drawn) [Example 43, 2-cyclohexyl-6-(3,5-dimethoxybenzyl)-8-(morpholin-4-yl)-2,6-dihydroimidazo[1,2-c]pyrido[2,3-e]pyrimidin-5(3H)-one], the IC50 came to 112 nM.

As to `COc1cc(CN2C(=O)N3C(=NCC3C3CCCCC3)c3ncc(N4CCOCC4)cc32)cc(OC)c1` (stereo not drawn) [Example 44, 3-cyclohexyl-6-(3,5-dimethoxybenzyl)-8-(morpholin-4-yl)-2,6-dihydroimidazo[1,2-c]pyrido[2,3-e]pyrimidin-5(3H)-one], the IC50 is 491 nM.

`O=C1N(Cc2ccc(Cl)cc2)c2cc(N3CCOCC3)cnc2C2=NCC(c3ccccc3)N12` (stereo not drawn) [Example 45, 6-(4-chlorobenzyl)-8-(morpholin-4-y1)-3-phenyl-2,6-dihydroimidazo[1,2-c]pyrido[2,3-e]pyrimidin-5(3H)-one]: the IC50 was 200 nM.

Turning to `COc1cc(CN2C(=O)N3CC(c4ccccc4)N=C3c3ncc(N4CCOCC4)cc32)cc(OC)c1` (stereo not drawn) [Example 46, 6-(3,5-dimethoxybenzyl)-8-(morpholin-4-yl)-2-phenyl-2,6-dihydroimidazo[1,2-c]pyrido[2,3-e]pyrimidin-5(3H)-one], the IC50 turned out to be 127 nM.

Consider `COc1cc(CN2C(=O)N3C(=NCC3c3ccccc3)c3ncc(N4CCOCC4)cc32)cc(OC)c1` (stereo not drawn) [Example 47, 6-(3,5-dimethoxybenzyl)-8-(morpholin-4-yl)-3-phenyl-2,6-dihydroimidazo[1,2-c]pyrido[2,3-e]pyrimidin-5(3H)-one], for which the IC50 was determined as 199 nM.

With `COc1cc(CN2C(=O)N3CC(C(C)C)N=C3c3ncc(NC4CCOCC4)cc32)cc(OC)c1` (stereo not drawn) [Example 49, 6-(3,5-dimethoxybenzyl)-2-(propan-2-yl)-8-(tetrahydro-2H-pyran-4-ylamino)-2,6-dihydroimidazo[1,2-c]pyrido[2,3-e]pyrimidin-5(3H)-one], the IC50 is 872 nM.

Take `CCC1CN2C(=O)N(Cc3ccc(Cl)cc3)c3cc(N4CCOCC4)cnc3C2=N1` (stereo not drawn) [Example 50, 6-(4-chlorobenzyl)-2-ethyl-8-(morpholin-4-y1)-2,6-dihydroimidazo[1,2-c]pyrido[2,3-e]pyrimidin-5(3H)-one]: the IC50 was found to be 280 nM.

Consider `CC(C)C1CN2C(=O)N(Cc3ccc(Cl)cc3)c3cc(N4CCC(O)CC4)cnc3C2=N1` (stereo not drawn) [Example 51, 6-(4-chlorobenzyl)-8-(4-hydroxypiperidin-1-yl)-2-(propan-2-yl)-2,6-dihydroimidazo[1,2-c]pyrido[2,3-e]pyrimidin-5(3H)-one], for which the IC50 is 731 nM.

For `CCC1CN2C(=O)N(Cc3ccc(OC)cc3)c3cc(N4CCOCC4)cnc3C2=N1` (stereo not drawn) [Example 52, 2-ethyl-6-(4-methoxybenzyl)-8-(morpholin-4-y1)-2,6-dihydroimidazo[1,2-c]pyrido[2,3-e]pyrimidin-5(3H)-one], the IC50 was determined as 1250 nM.

As for `CCC1CN=C2c3ncc(N4CCOCC4)cc3N(Cc3ccc(OC)cc3)C(=O)N21` (stereo not drawn) [Example 53, 3-ethyl-6-(4-methoxybenzyl)-8-(morpholin-4-y1)-2,6-dihydroimidazo[1,2-c]pyrido[2,3-e]pyrimidin-5(3H)-one], the IC50 was 2070 nM.

For `O=C(C1CN2C(=O)N(Cc3ccc(Cl)cc3)c3cc(N4CCOCC4)cnc3C2=N1)N1CCOCC1` (stereo not drawn) [Example 54, 6-(4-chlorobenzyl)-8-(morpholin-4-yl)-2-(morpholin-4-ylcarbonyl)-2,6-dihydroimidazo[1,2-c]pyrido[2,3-e]pyrimidin-5(3H)-one], the IC50 was 1700 nM.
